Reference: PubChem BioAssay (NCI)
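Values below derive from 48-hour exposures of cells grown in 96-well plates, with endpoints linearly interpolated between the two concentrations bracketing the appropriate inhibition level. TGI: total growth inhibition.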

Tests used:
Assay in all cases: inhibition of tumour cell growth, NCI panel, 48 h
OVCAR-8 ovarian = tested on: OVCAR-8 ovarian
SF-295 CNS = tested on: SF-295 CNS
SK-OV-3 ovarian = tested on: SK-OV-3 ovarian
NCI-H522 lung = tested on: NCI-H522 lung
HT29 colon = tested on: HT29 colon
RPMI-8226 leukemia = tested on: RPMI-8226 leukemia
SF-268 CNS = tested on: SF-268 CNS
OVCAR-5 ovarian = tested on: OVCAR-5 ovarian
SK-MEL-5 melanoma = tested on: SK-MEL-5 melanoma
COLO 205 colon = tested on: COLO 205 colon
BT-549 breast = tested on: BT-549 breast
CCRF-CEM leukemia = tested on: CCRF-CEM leukemia
DU-145 prostate = tested on: DU-145 prostate
SF-539 CNS = tested on: SF-539 CNS
SN12C renal = tested on: SN12C renal
TK-10 renal = tested on: TK-10 renal
SK-MEL-2 melanoma = tested on: SK-MEL-2 melanoma
NCI/ADR-RES ovarian = tested on: NCI/ADR-RES ovarian
MCF7 breast = tested on: MCF7 breast
MDA-MB-231 breast = tested on: MDA-MB-231 breast
786-0 renal = tested on: 786-0 renal
NCI-H226 lung = tested on: NCI-H226 lung
OVCAR-4 ovarian = tested on: OVCAR-4 ovarian
PC-3 prostate = tested on: PC-3 prostate
NCI-H460 lung = tested on: NCI-H460 lung
T-47D breast = tested on: T-47D breast
MDA-N = tested on: MDA-N
MOLT-4 leukemia = tested on: MOLT-4 leukemia
A498 renal = tested on: A498 renal
HOP-62 NSCLC = tested on: HOP-62 NSCLC
K-562 leukemia = tested on: K-562 leukemia
UO-31 renal = tested on: UO-31 renal
RXF 393 renal = tested on: RXF 393 renal
NCI-H23 lung = tested on: NCI-H23 lung
SNB-19 CNS = tested on: SNB-19 CNS
LOX IMVI melanoma = tested on: LOX IMVI melanoma
MALME-3M melanoma = tested on: MALME-3M melanoma
SK-MEL-28 melanoma = tested on: SK-MEL-28 melanoma
HCT-15 colon = tested on: HCT-15 colon
A549 NSCLC = tested on: A549 NSCLC
SR leukemia = tested on: SR leukemia
OVCAR-3 ovarian = tested on: OVCAR-3 ovarian
HL-60(TB) leukemia = tested on: HL-60(TB) leukemia
HS 578T breast = tested on: HS 578T breast
SNB-75 CNS = tested on: SNB-75 CNS
IGROV1 ovarian = tested on: IGROV1 ovarian
UACC-62 melanoma = tested on: UACC-62 melanoma
M14 melanoma = tested on: M14 melanoma
U251 CNS = tested on: U251 CNS
SW-620 colon = tested on: SW-620 colon
EKVX NSCLC = tested on: EKVX NSCLC
ACHN renal = tested on: ACHN renal
HCC-2998 colon = tested on: HCC-2998 colon

Measured: TGI

CNc1ccc(Cl)cc1S(=O)(=O)c1ccccc1[N+](=O)[O-]
> 100 µM: all assays above
